From patent US20230058160A1, “METABOLITE-BASED POLYMERS, MICROPARTICLES, AND NANOPARTICLES FOR IMMUNOTHERAPY AND METHODS OF TREATING A DISEASE OR DISORDER” (priority 2020, published 2023)
Entries after “also recorded” stand apart in the source; their conditions may differ.

Experiments:
YUMM1.1 cells = assay: MTT cell viability assay, YUMM1.1 melanoma cells; assay type: cell-based, mouse
Description: (§1) In order to determine if PFK15 prevents melanoma cell growth in vitro, two different mouse melanoma cells were utilized, namely YUMM1.1 (BrafV600E/wt, Pten−/− Cdkn2−/−MHClHi) and B16F10. Specifically, YUMM1.1 and B16F10 cells were cultured with different concentrations of […], and the percentage cell viability was determined using MTT assay.
as §1, with “if […]” for “if PFK15”, “YUMM1.1” for “YUMM1.1 (BrafV600E/wt, Pten−/− Cdkn2−/−MHClHi)”

[1] = tested on: bone marrow derived dendritic cells; assay: Dendritic cell activation by flow cytometry (MHCII, CD86, CD11c); assay type: cell-based, C57BL/6j mice; details: for DC activation (CD86+ and MHCII+CD86+ populations in CD11c+ DCs), inhibitor alone: 200 nM PFK15 or 30 nM CB-839; for concentration that prevented the activation of DCs: 24 hours incubation, MHCII, CD86, CD11c staining
Description: In order to test the effect of PFKFB3 inhibition on DC and T cell activation, PFK15 was employed. Specifically, DCs were isolated from bone marrow of C57BL/6j mice using GM-CSF, and incubated with different concentrations of PFK15 (50, 100, 200, 400, 800, 1600 nM) for 24 hours. These cells were then stained for MHCII, CD86 and CD 11c to determine activation profile. It was observed that at 200 nM and higher concentrations of PFK15 prevented the activation of DCs (FIG. 3—200 nM shown as example).
In order to test the effect of glutaminase inhibition on DC activation, bone marrow DCs were isolated from C57BL/6j mice and cultured with different concentrations of CB-839, a clinically validated molecule (0, 15, 30, 60, 120 nM) for 24 hours. These cells were then stained for MHCII, CD86, and CD11c to determine activation profile. It was observed that at 30 nM and higher concentrations of CB-839 prevented the activation of DCs (FIG. 11—30 nM is shown as a representative example).
Specifically, DCs were cultured in the presence of CB-839 with or without PEGS (0.1 mg/mL) and with or without LPS (0.1 μg/mL) for 24 hours. Cells were then stained for MHC-II, CD86 and CD11c and analyzed using flow cytometry.

DCs = assay: Seahorse ECAR/OCR of dendritic cells (glycolysis stress test); assay type: cell-based, C57BL/6j mice
Description: In order to test if F16BP particles can rescue DCs from exhaustion when cultured in the presence of PFK15, ECAR using Seahorse assays was utilized. Specifically, DCs were cultured with either PFK 15 (200 nM), F16BP (0.1 mg/mL) or PFK15+F16BP with or without LPS and ECAR measurements were obtained.
Specifically, immature DCs were obtained from C57BL/6j mice and cultured with PEGS (0.1 mg/mL) with or without CB-839 (30 nM or 240 nM) for 16 hours. After 16 hours of incubation, DCs were incubated in glucose free medium and ECAR and OCR values were recorded using Seahorse extracellular flux (XF) analyzer (glucose addition at 20 min).

B16F10 cells = assay: MTT cell viability assay, B16F10 melanoma cells; assay type: cell-based, mouse
Description: as §1
as §1, with “if […]” for “if PFK15”, “YUMM1.1” for “YUMM1.1 (BrafV600E/wt, Pten−/− Cdkn2−/−MHClHi)”

YUMM1.1 tumors = assay: YUMM1.1 tumor model in mice; assay type: in vivo
Description: In order to determine if the injection of F16BP particles in vivo can lead to longer survival in mice, study design shown in FIG. 7A and FIG. 7B was followed.
In order to test the efficacy of F16BP particles-based vaccines to reduce tumor growth in mice, C57BL/6j mice were utilized. Specifically, tumors were induced by injecting 0.75×10^6 cells in the back of the mice. From day 18 onwards, mice were injected with the F16BP based vaccines injected subcutaneously (0.5 mg/mouse) every 3 days (total 3 treatments—days 21, 24, 27) with PFK15 (5 mg/kg) injected every other day intraperitoneally (FIG. 7A—same study design as survival but mice euthanized day 28 for T cell analyses). Controls included PFK15 injections every alternate day, or no treatment. Mice were then sacrificed on day 26 and the tumors, draining lymph nodes, and non-draining contralateral lymph nodes were harvested.

IC50 (YUMM1.1 cells; Mus musculus, MTT assay, percentage cell viability, read-out: IC50 to prevent proliferation of YUMM1.1 cells) | SMILES | DC activation (CD86+ and MHCII+CD86+ populations in CD11c+ DCs), inhibitor alone [1] | concentration that prevented the activation of DCs [1] | glycolysis and mitochondrial respiration in DCs (ECAR and OCR), CB-839 alone (DCs; 30 nM CB-839, 16 hours) | killing of YUMM1.1 cells in vitro (YUMM1.1 cells) | IC50 of YUMM1.1 melanoma cells using PFK-15 (FIG. 6B) (YUMM1.1 cells; MTT assay, n=6) | DC activation (CD86+ and MHCII+CD86+ populations in CD11c+ DCs), inhibitor alone ([1]; listed as PFK-15) | killing of B16F10 cells in vitro (B16F10 cells) | tumor burden / tumor growth (YUMM1.1 tumors; F16BP vaccine 0.5 mg/mouse s.c., PFK15 5 mg/kg i.p., vs PFK15 alone and no treatment) | improvement of survival of mice (YUMM1.1 tumors; PFK15 5 mg/kg intraperitoneally every other day) | ECAR of DCs, PFK15 without LPS (DCs; PFK15 200 nM without LPS)
3.75 nM | O=C(Cc1cccc(OC(F)(F)F)c1)Nc1ccc(CCCCc2nnc(NC(=O)Cc3ccccn3)s2)nn1 [CB-839] | significantly reduces activation in DCs | ≥ 30 nM | block glycolysis and mitochondrial respiration; also recorded: do not upregulate glycolysis or mitochondrial respiration | – | – | – | – | – | – | –
– | O=C(/C=C/c1ccc2ccccc2n1)c1ccncc1 [PFK15] | significantly reduces activation in DCs | ≥ 200 nM | – | able to kill | 5 µM | downregulated | able to kill | significant improvements in tumor burden | 15 days | even lower than the no treatment control
